Assays:
animal = settings: long term animal studies; cited from earlier work
male adults with AGA = settings: cited from earlier work
dogs = settings: short-term administration 0.5 mg to 10 mg/kg/day; cited from earlier work
[1] = 2.5 mg, 5 mg, or 10 mg oral; cited from earlier work
patients = settings: cited from earlier work
[2] = oral; cited from earlier work
mice = settings: dietary, up to 2 years, 63 mg/kg/day; cited from earlier work
[3] = test system: patient with androgenetic alopecia; settings: 1.25 mg QID

SMILES: Nc1cc(N2CCCCC2)nc(N)[n+]1[O-] [minoxidil]
- cardiac findings (animal): cardiac hypertrophy, cardiac dilation, and serosanguineous pericardial fluid
- adverse cardiovascular outcomes (male adults with AGA; 5 mg oral at bedtime, 24 weeks): No adverse cardiovascular outcomes
- change in mean heart rate (male adults with AGA; 5 mg oral at bedtime, 24 weeks): no overall change in mean heart rate
- laboratory variables before versus after treatment (male adults with AGA; 5 mg oral at bedtime, 24 weeks): no differences
- subjects developing tachycardia (male adults with AGA; at the follow-up visit): 1 subject
- cardiac findings (dogs): various cardiac lesions
- differences in systolic and diastolic blood pressure (time effects within treatments) [1]: less than 10%
- effect on blood pressure in normotensive subjects [1]: little effect on blood pressure
- emergence of hypertrichosis signs after starting treatment (patients; human, in vivo): 3-6 weeks
- spontaneous reversal of hypertrichosis after cessation of therapy (patients; human, in vivo): 1-6 months
- occurrence of hypertrichosis (patients; treated patients): most patients
- absorbed from the gastrointestinal tract [2]: > 90%
- incidence of hepatic nodules in males (mice): increased incidence of hepatic nodules
- unwanted hair growth or other adverse events [3]: No unwanted hair growth or other adverse events, including any cardiac effects

— patent US12491184B2 (Veradermics, Incorporated, priority 2022, dated 2025)
